Data taken from patent publication EP3597650B1, “ALDOSE REDUCTASE INHIBITORS AND USES THEREOF” (The Trustees of Columbia University in the City of New York, priority 2010, dated 2012).

Key:
[1] = biological target: human recombinant aldose reductase (Homo sapiens, UniProt P15121); test: biochemical
Method: The rcductasc activity of Compound A and zopolrestat were spectrophotometrically assayed by following the decrease of NADPH at 25°C for 4 min as described in Sato, S. (1992), "Rat kidney aldose reductase and aldehyde reductase and polyolproduction in rat kidney" Am. J. Physiol. 263, F799.F805, incorporated by reference herein in its entirety. [drawing 59]
Briefly, the reaction mixture (total volume 1 ml) contained 0.1 mM NADPH, 100 mM substrate (DL-glyceraldehyde or L-xylose) and human recombinant aldose reductase (100 mU) in 0.1 M phosphate buffer, pH 6.2. The head to head experiment was carried out in a microplate assay for AR inhibition using D-Glyceraldehyde and NADPH and the absorbance changes were monitored at 340nm and % inhibition was calculated for ARIs at concentrations ranging from 0.1 nM to 100 µM (Table 2 and Figure 2). Data is presented as mean ± standard deviation and is an average of 5 separate runs. The reaction was started by adding the substrate (glyceraldehyde or xylose) as well as the same reaction mixture in which the substrate replaced by deionized water was used as a control. One enzyme unit (U) was defined as the activity consuming 1 µmole of NADPH per min at 25 °C. Table 2. Aldose Reductase Activity for Zopolrestat and Compound A.

isolated rat heart = test: Ex vivo isovolumic isolated rat heart, ischemia reperfusion (I/R) injury; settings: 100 nM in perfusate; 20 min zero-flow ischemia, 60 min reperfusion
Method: Experiments were performed using an isovolumic isolated rat heart preparation as as described by Hwang YC, Sato S, Tsai JY, Yan S, Bakr S, Zhang H, Oates PJ , Ramasamy R (2002), "Aldose reductase activation is a key component of myocardial response to ischemia," Faseb J. 16, 243-245 and Ramasamy R, Hwang YC, Whang J , Bergmann SR (2001), "Protection of ischemic hearts by high glucose is mediated, in part, by GLUT-4," American Journal of Physiology. 281, H290-297.
Male Wistar rats (300.350 g, 3 to 4 months old) were anesthetized with a mixture of ketamine (80 mg/kg) and xylazine (10 mg/kg). After deep anesthesia was achieved, hearts were rapidly excised, placed into iced saline, and retrogradely perfused at 37 °C in a non-recirculating mode through the aorta at a rate of 12.5 ml/min. Hearts were perfused with modified Krebs-Henseleit buffer containing (in mM) NaCl 118, KCl 4.7, CaCl2 2.5, MgCl2 1.2, NaHCO3 25, glucose 5, palmitate 0.4, bovine serum albumin 0.4, and 70 mU/L insulin. […] Left ventricular developed pressure (LVDP) and left ventricular end diastolic pressure (LVEDP) were measured using a latex balloon in the left ventricle. LVDP, heart rate, and coronary perfusion pressure were monitored continuously on a ADI recorder. […]
Briefly, isolated perfused hearts were subjected to ischemia reperfusion (I/R) injury and the measures of cardiac injury and cardiac function monitored. […]

[2] = Solubility in water, LC-MS absorbance peak area at 254 nm; type: physicochemical; settings: for Area (Integration of Absorbance Peaks): water pH 7.1, ambient temperature, 254 nm
Method: Each sample of Compound A & zopolrestat were placed, separately, in water (MQW ultra nanopure) at ambient temperature and vortexed for 3 minutes. The aliquots were then filtered through a tightly-packed cotton plug (placed in a pipette) to remove any residual solids. The attempted concentrations of the respective solutions of Compound A and zopolrestat made were 0.05 mg/mL, 0.1 mg/mL, 0.5 mg/mL, 1.0 mg/mL, 5.0 mg/mL, and 10.0 mg/mL. The pH of the water used was 7.1 (measured electronically by an Orion perpHect LogR Meter Model # 370).
The filtered samples were run through a binary gradient (program: 5%-100% MeCN over 30 mins) on a LC-MS (Shimadzu LCMS-2010A Liquid Chromatography Mass Spectrometer, reverse-phase column). A 5 µL volume of each sample solution was injected for each run. Each trace contained a peak (for Compound A, TR approx. 14.070 mins; for zopolrestat, TR approx. 16.666 mins) measured at a wavelength of 254 nm for which the respective parent ion masses were observed.
By comparing the absorbance areas under the peaks corresponding to Compound A & zopolrestat in each water solution made (Table 1), a solubility curve for each compound was generated (Fig. 1). […] Table 1. Integration of Absorbance Peaks for Various Concentrations of Compounds.

[3] = Solubility in Krebs-Henseleit buffer; type: physicochemical; settings: Krebs-Henseleit buffer with glucose, palmitate, bovine serum albumin, insulin
[4] = attempted concentration 0.05 mg/mL
[5] = attempted concentration 0.1 mg/mL
[6] = attempted concentration 0.5 mg/mL
[7] = attempted concentration 1 mg/mL
[8] = attempted concentration 5 mg/mL
[9] = attempted concentration 10 mg/mL

inhibition at 0.0001 µM [1] [%]	inhibition at 0.001 µM [1] [%]	inhibition at 0.01 µM [1] [%]	inhibition at 0.1 µM [1] [%]	inhibition at 1 µM [1] [%]	inhibition at 10 µM [1] [%]	inhibition at 100 µM [1] [%]	more active than zopolrestat in vitro against aldose reductase ([1]; fold relative to zopolrestat)	solubility in pH 7.1 water relative to Zopolrestat ([2]; ambient temperature, all concentrations)	Area (Integration of Absorbance Peaks) [2, 4]	Area (Integration of Absorbance Peaks) [2, 5]	Area (Integration of Absorbance Peaks) [2, 6]	Area (Integration of Absorbance Peaks) [2, 7]	Area (Integration of Absorbance Peaks) [2, 8]	Area (Integration of Absorbance Peaks) [2, 9]	Compound	CK Release (isolated rat heart)	LVDP Recovery (isolated rat heart)	solubility in Krebs-Henseleit buffer [3]
69 ± 1.3	79.6 ± 2.4	80 ± 1.8	89.2 ± 0.7	93.6 ± 2.8	95.3 ± 1.1	96.2 ± 3.3	approximately 100 x	significantly greater solubility	1811131	3221003	5814304	10515430	17216187	20397336	O=C(O)Cc1nn(Cc2nc3cc(C(F)(F)F)ccc3s2)c(=O)c2nccnc12 [Compound A, 2-(8-oxo-7-((5-(trifluoromethyl)benzo[d]thiazol-2-yl)methyl)-7,8-dihydropyrazino[2,3-d]pyridazin-5-yl)acetic acid]	Compound A treated Rat hearts = 425±63 IU/g wet weight	Compound A Treated Rat Hearts = 76±5 % of pre-ischemic values	soluble without ay precipitation or turbidity
31.7 ± 5.1	39.3 ± 4.3	52.2 ± 1.9	76.7 ± 2.7	86.3 ± 3.6	90.1 ± 3.4	93.2 ± 3.8			1039247	1899466	4304556	6129559	13314544	13362465	O=C(O)Cc1nn(Cc2nc3cc(C(F)(F)F)ccc3s2)c(=O)c2ccccc12 [zopolrestat, reference compound]			heat was applied to render zopolrestat soluble
